Data: ChEMBL document CHEMBL3997786, “Development of Dihydroxyphenyl Sulfonylisoindoline Derivatives as Liver-Targeting Pyruvate Dehydrogenase Kinase Inhibitors” (J Med Chem, 2017)

Columns and labels:
[1] = molecular target: T1, [Pyruvate dehydrogenase (acetyl-transferring)] kinase isozyme 2, mitochondrial (Homo sapiens, UniProt Q15119); assay: Inhibition of N-terminal His6-SUMO tagged recombinant human PDK2 using [32P]-gamma-ATP assessed as decrease in incorporation of radioactivity into E1 protein incubated for 2 mins
Liver [2] = assay: Cmax in CD1 mouse liver at 70 mg/kg, ip by LC-MS/MS analysis; type: ADME, organism-based; design: dose 70 mg/kg, route intraperitoneal; conditions: in vivo
[3] = Tmax in CD1 mouse muscle at 70 mg/kg, ip by LC-MS/MS analysis; type: ADME, organism-based, Muscle tissue
Plasma [4] = assay: Apparent volume of distribution during terminal phase in CD1 mouse plasma at 70 mg/kg, ip by LC-MS/MS analysis; type: ADME, organism-based; conditions: in vivo
Liver [5] = assay: AUClast in CD1 mouse liver at 70 mg/kg, ip by LC-MS/MS analysis; type: ADME, organism-based; conditions: in vivo
[6] = Apparent clearance in CD1 mouse muscle at 70 mg/kg, ip by LC-MS/MS analysis; type: ADME, organism-based, Muscle tissue; conditions: in vivo
Plasma [7] = assay: AUClast in CD1 mouse plasma at 70 mg/kg, ip by LC-MS/MS analysis; type: ADME, organism-based; design: dose 70 mg/kg, route intraperitoneal, time 0 - last; conditions: in vivo
Liver [8] = assay: Tmax in CD1 mouse liver at 70 mg/kg, ip by LC-MS/MS analysis; type: ADME, organism-based; conditions: in vivo
Liver [9] = assay: Apparent clearance in CD1 mouse liver at 70 mg/kg, ip by LC-MS/MS analysis; type: ADME, organism-based; conditions: in vivo
Plasma [10] = assay: Cmax in CD1 mouse plasma at 70 mg/kg, ip by LC-MS/MS analysis; type: ADME, organism-based; design: dose 70 mg/kg, route intraperitoneal; conditions: in vivo
[11] = AUClast in CD1 mouse muscle at 70 mg/kg, ip by LC-MS/MS analysis; type: ADME, organism-based, Muscle tissue; conditions: in vivo
Liver [12] = assay: Terminal half life in CD1 mouse liver at 70 mg/kg, ip by LC-MS/MS analysis; type: ADME, organism-based; conditions: in vivo
[13] = molecular target: T1, [Pyruvate dehydrogenase (acetyl-transferring)] kinase isozyme 2, mitochondrial; assay: Binding affinity to N-terminal His6-SUMO tagged recombinant human PDK2 by isothermal titration calorimetry
[14] = Apparent volume of distribution during terminal phase in CD1 mouse muscle at 70 mg/kg, ip by LC-MS/MS analysis; type: ADME, organism-based, Muscle tissue; conditions: in vivo
[15] = Apparent clearance in CD1 mouse plasma at 70 mg/kg, ip by LC-MS/MS analysis; type: ADME, organism-based
Liver [16] = assay: Apparent volume of distribution during terminal phase in CD1 mouse liver at 70 mg/kg, ip by LC-MS/MS analysis; type: ADME, organism-based; conditions: in vivo
Plasma [17] = assay: Terminal half life in CD1 mouse plasma at 70 mg/kg, ip by LC-MS/MS analysis; type: ADME, organism-based; conditions: in vivo
Plasma [18] = assay: Tmax in CD1 mouse plasma at 70 mg/kg, ip by LC-MS/MS analysis; type: ADME, organism-based; conditions: in vivo
[19] = Terminal half life in CD1 mouse muscle at 70 mg/kg, ip by LC-MS/MS analysis; type: ADME, organism-based, Muscle tissue; conditions: read-out: beta t1/2
[20] = Cmax in CD1 mouse muscle at 70 mg/kg, ip by LC-MS/MS analysis; type: ADME, organism-based, Muscle tissue; design: dose 70 mg/kg, route intraperitoneal
Liver [21] = assay: Cmax in CD1 mouse liver at 30 mg/kg, ip by LC-MS/MS analysis; type: ADME, organism-based; design: dose 30 mg/kg, route intraperitoneal; conditions: in vivo
[22] = molecular target: T2, [Pyruvate dehydrogenase (acetyl-transferring)] kinase isozyme 3, mitochondrial (Homo sapiens, UniProt Q15120); assay: Inhibition of recombinant human PDK3 in presence of E1 protein incubated for 10 mins by titration assay
T2 sequence (Q15120 whole entry): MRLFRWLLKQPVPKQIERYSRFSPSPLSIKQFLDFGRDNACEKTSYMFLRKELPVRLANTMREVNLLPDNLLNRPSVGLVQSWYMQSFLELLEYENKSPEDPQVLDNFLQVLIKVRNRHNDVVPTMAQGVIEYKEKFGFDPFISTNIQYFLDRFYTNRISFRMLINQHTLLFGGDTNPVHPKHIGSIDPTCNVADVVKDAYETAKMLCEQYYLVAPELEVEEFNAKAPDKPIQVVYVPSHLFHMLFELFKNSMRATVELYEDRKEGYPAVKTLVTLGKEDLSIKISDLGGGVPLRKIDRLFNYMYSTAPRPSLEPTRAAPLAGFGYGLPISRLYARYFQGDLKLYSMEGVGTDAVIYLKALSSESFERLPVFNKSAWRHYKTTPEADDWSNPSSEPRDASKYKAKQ

Plasma [23] = assay: AUClast in CD1 mouse plasma at 30 mg/kg, ip by LC-MS/MS analysis; type: ADME, organism-based; design: dose 30 mg/kg, route intraperitoneal, time 0 - last; conditions: in vivo
[24] = Apparent volume of distribution during terminal phase in CD1 mouse muscle at 30 mg/kg, ip by LC-MS/MS analysis; type: ADME, organism-based, Muscle tissue; conditions: in vivo
Plasma [25] = assay: Apparent volume of distribution during terminal phase in CD1 mouse plasma at 30 mg/kg, ip by LC-MS/MS analysis; type: ADME, organism-based; conditions: in vivo
[26] = Tmax in CD1 mouse plasma at 30 mg/kg, ip by LC-MS/MS analysis; type: ADME, organism-based
[27] = molecular target: T1, [Pyruvate dehydrogenase (acetyl-transferring)] kinase isozyme 2, mitochondrial; assay: Inhibition of N-terminal His6-SUMO tagged recombinant human PDK2 in presence of E1 protein and PDC core E2/E3BP incubated for 10 mins by titration assay
[28] = Tmax in CD1 mouse muscle at 30 mg/kg, ip by LC-MS/MS analysis; type: ADME, organism-based, Muscle tissue
Liver [29] = assay: Apparent volume of distribution during terminal phase in CD1 mouse liver at 30 mg/kg, ip by LC-MS/MS analysis; type: ADME, organism-based; conditions: in vivo
[30] = Apparent clearance in CD1 mouse muscle at 30 mg/kg, ip by LC-MS/MS analysis; type: ADME, organism-based, Muscle tissue; conditions: in vivo
[31] = Terminal half life in CD1 mouse muscle at 30 mg/kg, ip by LC-MS/MS analysis; type: ADME, organism-based, Muscle tissue; conditions: read-out: beta t1/2
[32] = molecular target: T3, [Pyruvate dehydrogenase (acetyl-transferring)] kinase isozyme 1, mitochondrial (Homo sapiens, UniProt Q15118); assay: Inhibition of recombinant human PDK1 in presence of E1 protein incubated for 10 mins by titration assay
T3 sequence (Q15118 whole entry): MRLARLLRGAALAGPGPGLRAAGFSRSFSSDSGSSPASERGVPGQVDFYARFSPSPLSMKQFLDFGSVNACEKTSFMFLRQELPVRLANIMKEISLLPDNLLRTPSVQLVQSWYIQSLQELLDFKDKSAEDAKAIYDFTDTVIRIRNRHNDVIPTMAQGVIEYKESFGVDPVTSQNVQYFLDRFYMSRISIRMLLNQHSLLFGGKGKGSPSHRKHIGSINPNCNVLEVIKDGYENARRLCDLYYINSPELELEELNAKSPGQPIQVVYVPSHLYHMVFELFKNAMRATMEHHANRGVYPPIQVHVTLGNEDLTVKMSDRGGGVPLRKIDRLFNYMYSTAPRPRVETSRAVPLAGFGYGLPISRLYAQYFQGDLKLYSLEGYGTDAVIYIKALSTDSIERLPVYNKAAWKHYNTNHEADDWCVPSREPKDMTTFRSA

Mus musculus = assay: In vivo inhibition of PDK in DIO C57BL/6J mouse assessed as increase in PDC activity in liver at 40 to 45 mg/kg/day administered through mini osmotic pump for 2 weeks relative to control; type: functional
Liver [33] = assay: Terminal half life in CD1 mouse liver at 30 mg/kg, ip by LC-MS/MS analysis; type: ADME, organism-based; conditions: in vivo
Plasma [34] = assay: Cmax in CD1 mouse plasma at 30 mg/kg, ip by LC-MS/MS analysis; type: ADME, organism-based; design: dose 30 mg/kg, route intraperitoneal; conditions: in vivo
[35] = molecular target: T4, [Pyruvate dehydrogenase (acetyl-transferring)] kinase isozyme 4, mitochondrial (Homo sapiens, UniProt Q16654); assay: Inhibition of recombinant human PDK4 in presence of E1 protein incubated for 10 mins by titration assay
T4 sequence (Q16654 whole entry): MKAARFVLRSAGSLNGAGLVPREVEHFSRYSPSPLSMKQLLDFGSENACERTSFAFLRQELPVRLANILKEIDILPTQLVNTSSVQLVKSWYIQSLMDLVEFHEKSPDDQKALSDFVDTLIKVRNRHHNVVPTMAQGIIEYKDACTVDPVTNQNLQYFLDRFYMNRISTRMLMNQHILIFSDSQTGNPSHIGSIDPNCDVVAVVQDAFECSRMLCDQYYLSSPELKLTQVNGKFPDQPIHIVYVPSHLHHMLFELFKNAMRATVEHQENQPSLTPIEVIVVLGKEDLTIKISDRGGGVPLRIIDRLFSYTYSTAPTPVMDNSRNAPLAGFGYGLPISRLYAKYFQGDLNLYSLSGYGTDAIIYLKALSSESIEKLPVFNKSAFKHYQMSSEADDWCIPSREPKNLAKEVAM

Liver [36] = assay: AUClast in CD1 mouse liver at 30 mg/kg, ip by LC-MS/MS analysis; type: ADME, organism-based; conditions: in vivo
Liver [37] = assay: Apparent clearance in CD1 mouse liver at 30 mg/kg, ip by LC-MS/MS analysis; type: ADME, organism-based; conditions: in vivo
Plasma [38] = assay: Terminal half life in CD1 mouse plasma at 30 mg/kg, ip by LC-MS/MS analysis; type: ADME, organism-based; conditions: in vivo
Liver [39] = assay: Tmax in CD1 mouse liver at 30 mg/kg, ip by LC-MS/MS analysis; type: ADME, organism-based; conditions: in vivo
[40] = AUClast in CD1 mouse muscle at 30 mg/kg, ip by LC-MS/MS analysis; type: ADME, organism-based, Muscle tissue; conditions: in vivo
[41] = molecular target: T2, [Pyruvate dehydrogenase (acetyl-transferring)] kinase isozyme 3, mitochondrial; assay: Inhibition of recombinant human PDK3 in presence of E1 protein and PDC core E2/E3BP incubated for 10 mins by titration assay
[42] = Apparent clearance in CD1 mouse plasma at 30 mg/kg, ip by LC-MS/MS analysis; type: ADME, organism-based
[43] = Cmax in CD1 mouse muscle at 30 mg/kg, ip by LC-MS/MS analysis; type: ADME, organism-based, Muscle tissue; design: dose 30 mg/kg, route intraperitoneal
[44] = molecular target: T3, [Pyruvate dehydrogenase (acetyl-transferring)] kinase isozyme 1, mitochondrial; assay: Inhibition of recombinant human PDK1 in presence of E1 protein and PDC core E2/E3BP incubated for 10 mins by titration assay
[45] = molecular target: T4, [Pyruvate dehydrogenase (acetyl-transferring)] kinase isozyme 4, mitochondrial; assay: Inhibition of recombinant human PDK4 in presence of E1 protein and PDC core E2/E3BP incubated for 10 mins by titration assay

O=C(O)CCCCC(=O)N1CCC(Nc2ccc3c(c2)CN(S(=O)(=O)c2ccc(O)cc2O)C3)CC1
IC50 [1]: 1610 nM

O=S(=O)(c1ccc(O)cc1O)N1Cc2cc(O)cc(O)c2C1
Cmax (Liver [2]): 5707 ng/g | Tmax [3]: 30 min | Vz/F (Plasma [4]): 679 mL | AUClast (Liver [5]): 245088 ng·min/g | CL/F [6]: 2.32 g/min | AUClast (Plasma [7]): 1494106 ng·min/mL | IC50 [1]: 456 nM | Tmax (Liver [8]): 10 min | CL/F (Liver [9]): 8.13 g/min | Cmax (Plasma [10]): 29000 ng/mL | AUClast [11]: 885986 ng·min/g | beta t1/2 (Liver [12]): 100 min | Kd [13]: 156 nM | Vz/F [14]: 1720 g | CL/F [15]: 1.39 mL/min | Vz/F (Liver [16]): 1174 g | beta t1/2 (Plasma [17]): 339 min | Tmax (Plasma [18]): 10 min | half-life [19]: 514 min | Cmax [20]: 17400 ng/g

Nc1ccc2c(c1)CN(S(=O)(=O)c1ccc(O)cc1O)C2
IC50 [1]: 1180 nM

O=S(=O)(c1ccc(O)cc1O)N1Cc2ccc(N3CCNCC3)cc2C1
IC50 [1]: 1350 nM

O=S(=O)(c1ccc(O)cc1O)N1Cc2ccc(NC3CCCCC3)cc2C1
IC50 [1]: 1200 nM

NC(=O)CC[C@H](N)C(=O)N1CCC(Nc2ccc3c(c2)CN(S(=O)(=O)c2ccc(O)cc2O)C3)CC1
IC50 [1]: 72 nM

NC(=O)C[C@H](N)C(=O)N1CC[C@@H](Nc2ccc3c(c2)CN(S(=O)(=O)c2ccc(O)cc2O)C3)C1
IC50 [1]: 221 nM

NC(=O)C[C@H](N)C(=O)N1CCC(Nc2ccc3c(c2)CN(S(=O)(=O)c2ccc(O)cc2O)C3)CC1
Cmax (Liver [21]): 18767 ng/g | IC50 [22]: 45800 nM | AUClast (Plasma [23]): 234088 ng·min/mL | Vz/F [24]: 4043 g | Vz/F (Plasma [25]): 1289 mL | Tmax [26]: 10 min | IC50 [27]: 81 nM | Tmax [28]: 10 min | Vz/F (Liver [29]): 116 g | CL/F [30]: 8.64 g/min | IC50 [1]: 58 nM | half-life [31]: 324 min | IC50 [32]: 2540 nM | fold change (FC) (Mus musculus): 6 | beta t1/2 (Liver [33]): 303 min | Cmax (Plasma [34]): 5443 ng/mL | IC50 [35]: 284 nM | AUClast (Liver [36]): 2682301 ng·min/g | CL/F (Liver [37]): 0.266 g/min | beta t1/2 (Plasma [38]): 288 min | Tmax (Liver [39]): 30 min | Kd [13]: 22 nM | AUClast [40]: 83083 ng·min/g | IC50 [41]: 1710 nM | CL/F [42]: 3.11 mL/min | Cmax [43]: 2420 ng/g | IC50 [44]: 2060 nM | IC50 [45]: 416 nM

O=S(=O)(c1ccc(O)cc1O)N1Cc2ccc(NC3CCNCC3)cc2C1
IC50 [1]: 195 nM | Kd [13]: 110 nM

NC(=O)C[C@H](N)C(=O)N1CCN(c2ccc3c(c2)CN(S(=O)(=O)c2ccc(O)cc2O)C3)CC1
IC50 [1]: 767 nM

O=C(O)CCCCCCCC(=O)N1CCC(Nc2ccc3c(c2)CN(S(=O)(=O)c2ccc(O)cc2O)C3)CC1
IC50 [1]: 629 nM

NCCCC[C@H](N)C(=O)N1CCC(Nc2ccc3c(c2)CN(S(=O)(=O)c2ccc(O)cc2O)C3)CC1
IC50 [1]: 580 nM

N[C@@H](CO)C(=O)N1CCC(Nc2ccc3c(c2)CN(S(=O)(=O)c2ccc(O)cc2O)C3)CC1
IC50 [1]: 68 nM
